Two compounds from US12540913B2, “Chemical sensor, reagent, and method for detecting benzoic acid and benzoic acid derivative” (KABUSHIKI KAISHA TOSHIBA, priority 2023, dated 2026) can be followed below.

Read-outs that look alike come from different tables or passages of the source.

The experiment has as its target cocaine aptamer. To be noted: for Kd: read-out: dissociation constant Kd.

`COC(=O)c1ccccc1` [methyl benzoate]: the Kd was 87.7 µM (Comparative Example 1: 1 mM methyl benzoate titrated into 50 μM cocaine aptamer in D-PBS(−), no tropane derivative, binding order 1) and 69.7 µM (Example 1: 1 mM methyl benzoate titrated into 50 μM cocaine aptamer in D-PBS(−) containing 10 μM tropine).
Regarding `CN1[C@@H]2CC[C@H]1C[C@@H](O)C2` [tropine], the ITC heat generation result runs as follows: (Comparative Example 2: 1 mM tropine titrated into 50 μM cocaine aptamer in D-PBS(−)) “no heat generation was observed”; (Comparative Example 3: 1 mM tropine titrated into 50 μM cocaine aptamer in D-PBS(−) containing 10 μM methyl benzoate) “no heat generation was observed”.

In general, Kd refers to a measure of binding affinity in units of concentration.
